Source: patent US10125118B2, “Heteroaryl compounds and their use as therapeutic drugs” (Dong-A Socio Holdings Co., Ltd., priority 2015, dated 2018)

The compounds below were run against human c-MER catalytic domain (Homo sapiens (Human), UniProt Q12866) (assay: LanthaScreen TR-FRET kinase assay, c-MER). Conditions: read-out: Mer TK inhibition (IC50); Biochemical IC50, TR-FRET, 10 uM ATP.
human c-MER catalytic domain, sequence (Q12866 587-858): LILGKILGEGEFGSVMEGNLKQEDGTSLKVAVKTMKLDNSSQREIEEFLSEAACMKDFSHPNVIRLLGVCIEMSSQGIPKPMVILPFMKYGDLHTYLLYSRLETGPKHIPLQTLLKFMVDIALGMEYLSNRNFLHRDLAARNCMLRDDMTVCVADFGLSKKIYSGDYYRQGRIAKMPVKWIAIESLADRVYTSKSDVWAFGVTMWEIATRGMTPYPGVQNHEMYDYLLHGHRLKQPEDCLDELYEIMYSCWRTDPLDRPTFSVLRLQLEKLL

`C[C@@H](OCc1ccccc1)[C@H](NC(=O)c1cc(-c2cnn(C)c2)cnc1N)C(=O)N1CCCC1` [Example 125, 2-amino-N-((2S,3R)-3-(benzyloxy)-1-oxo-1-(pyrrolidin-1-yl)butan-2-yl)-5-(1-methyl-1H-pyrazol-4-yl)nicotinamide] and `C[C@H](NC(=O)c1cc(-c2cnn(C)c2)cnc1N)C(=O)OCc1ccccc1` [Example 126, benzyl (2-amino-5-(1-methyl-1H-pyrazol-4-yl)nicotinoyl)-L-alaninate] cannot be ordered by IC50: > 1000 nM for the first, > 1000 nM for the second.

`Cc1c(N)cccc1-c1ccc(CO[C@H]2CCC[C@@H]2NC(=O)c2cc(-c3cnn(C)c3)cnc2N)cc1` [Example 139, 2-amino-N-((1S,2S)-2-((3′-amino-2′-methyl-[1,1′-biphenyl]-4-yl)methoxy)cyclopentyl)-5-(1-methyl-1H-pyrazol-4-yl)nicotinamide] and `COc1ccc(CO[C@H]2CCC[C@@H]2NC(=O)c2cc(-c3cnn(C)c3)cnc2N)cc1` [Example 35, 2-amino-N-((1S,2S)-2-((4-methoxybenzyl)oxy)cyclopentyl)-5-(1-methyl-1H-pyrazol-4-yl)nicotinamide] cannot be ordered by IC50: > 1000 nM for the first, > 1000 nM for the second.

Going from `CN(C)CCCc1ccc(CO[C@H]2CCC[C@@H]2NC(=O)c2cc(-c3cnn(C)c3)cnc2N)cc1` [Example 244, 2-amino-N-((1S,2S)-2-((4-(3-(dimethylamino)propyl)benzyl)oxy)-cyclopentyl)-5-(1-methyl-1H-pyrazol-4-yl)nicotinamide] to `CN(C)CCOc1ccc(-c2ccc(CO[C@H]3CCC[C@@H]3NC(=O)c3cc(-c4cnn(C)c4)cnc3N)cc2)cc1` [Example 245, 2-amino-N-((1S,2S)-2-((4′-(2-(dimethylamino)ethoxy)-[1,1′-biphenyl]-4-yl)methoxy)cyclopentyl)-5-(1-methyl-M-pyrazol-4-yl)nicotinamide], the IC50 falls from > 1000 nM to < 10 nM. The second is the more potent here.

`COc1cccc(CO[C@@H](C)CNC(=O)c2cc(-c3cnn(C)c3)cnc2N)c1` [Example 107, (S)-2-amino-N-(2-((3-methoxybenzyl)oxy)propyl)-5-(1-methyl-1H-pyrazol-4-yl)nicotinamide] and `C[C@H](CNC(=O)c1cc(-c2cnn(C)c2)cnc1N)OCc1ccccc1` [Example 95, (R)-2-amino-N-(2-(benzyloxy)propyl)-5-(1-methyl-1H-pyrazol-4-yl)nicotinamide] cannot be ordered by IC50: > 1000 nM for the first, > 1000 nM for the second.

`Cn1cc(-c2cnc(N)c(C(=O)N[C@H]3CCCc4ccccc43)n2)cn1` [Example 131, (S)-3-amino-6-(1-methyl-1H-pyrazol-4-yl)-N-(1,2,3,4-tetrahydronaphthalen-1-yl)pyrazine-2-carboxamide] and `Nc1ncc(-c2cnn(C3CCNCC3)c2)nc1C(=O)N[C@H]1CCCc2ccccc21` [Example 362, (S)-3-amino-6-(1-(piperidin-4-yl)-1H-pyrazol-4-yl)-N-(1,2,3,4-tetrahydronaphthalen-1-yl)pyrazine-2-carboxamide] cannot be ordered by IC50: > 1000 nM for the first, > 1000 nM for the second.

`Cn1cc(-c2cnc(N)c(C(=O)N[C@H]3CCC[C@@H]3OCc3cccc(O)c3)c2)cn1` [Example 32, 2-amino-N-((1S,2S)-2-((3-hydroxybenzyl)oxy)cyclopentyl)-5-(1-methyl-1H-pyrazol-4-yl)nicotinamide] and `Cn1cc(-c2cnc(N)c(C(=O)N[C@H]3CCC[C@@H]3OCc3cccc(Br)c3)c2)cn1` [Example 51, 2-amino-N-((1S,2S)-2-((3-bromobenzyl)oxy)cyclopentyl)-5-(1-methyl-1H-pyrazol-4-yl)nicotinamide] cannot be ordered by IC50: > 1000 nM for the first, > 1000 nM for the second.

`Cn1cc(-c2cnc(N)c(C(=O)N[C@H]3CCC[C@@H]3OCc3cccc(-c4cccc(N)c4)c3)c2)cn1` [Example 170, 2-amino-N-((1S,2S)-2-((3′-amino-[1,1′-biphenyl]-3-yl)methoxy)-cyclopentyl)-5-(1-methyl-1H-pyrazol-4-yl)nicotinamide] and `Cn1cc(-c2cnc(N)c(C(=O)N[C@H]3CCC[C@@H]3OCc3cccc(-c4cccc(O)c4)c3)c2)cn1` [Example 169, 2-amino-N-((1S,2S)-2-((3′-hydroxy-[1,1′-biphenyl]-3-yl)-methoxy)cyclopentyl)-5-(1-methyl-1H-pyrazol-4-yl)nicotinamide] cannot be ordered by IC50: > 1000 nM for the first, > 1000 nM for the second.

`N#Cc1ccc(-c2cnc(N)c(C(=O)N[C@H]3CCC[C@@H]3OCc3ccccc3)c2)cc1` [Example 264, 2-amino-N-((1S,2S)-2-(benzyloxy)cyclopentyl)-5-(4-cyanophenyl)-nicotinamide] and `Cn1cc(-c2cnc(N)c(C(=O)N[C@H]3CCC[C@@H]3OCc3cccc(C#N)c3)c2)cn1` [Example 31, 2-amino-N-((1S,2S)-2-((3-cyanobenzyl)oxy)cyclopentyl)-5-(1-methyl-1H-pyrazol-4-yl)nicotinamide] cannot be ordered by IC50: > 1000 nM for the first, > 1000 nM for the second.

`Cc1ccc(CO[C@H]2CCC[C@@H]2NC(=O)c2cc(-c3ccc(CNCC4CCN(C)CC4)cc3)cnc2N)cc1C` [Example 329, 2-amino-N-((1S,2S)-2-((3,4-dimethylbenzyl)oxy)cyclopentyl)-5-(4-((((1-methylpiperidin-4-yl)methyl)amino)methyl)phenyl)nicotinamide] and `CN1CCN(C(C)(C)c2ccc(-c3ccc(CO[C@H]4CCC[C@@H]4NC(=O)c4cccnc4N)cc3)cc2)CC1` [Example 167, 2-amino-N-((1S,2S)-2-((4′-(2-(4-methylpiperazin-1-yl)propan-2-yl)-[1,1′-biphenyl]-4-yl)methoxy)cyclopentyl)nicotinamide] cannot be ordered by IC50: < 10 nM for the first, < 10 nM for the second.

`Cn1cc(-c2cnc(N)c(C(=O)N[C@H](COCc3ccccc3)Cc3ccccc3)c2)cn1` [Example 117, (S)-2-amino-N-(1-(benzyloxy)-3-phenylpropan-2-yl)-5-(1-methyl-1H-pyrazol-4-yl)nicotinamide] and `CC(C)C[C@@H](COCc1ccccc1)NC(=O)c1cc(-c2cnn(C)c2)cnc1N` [Example 111, (S)-2-amino-N-(1-(benzyloxy)-4-methylpentan-2-yl)-5-(1-methyl-1H-pyrazol-4-yl)nicotinamide] cannot be ordered by IC50: > 1000 nM for the first, > 1000 nM for the second.

`CC(C)N1C[C@H](NC(=O)c2cc(-c3cnn(C)c3)cnc2N)[C@@H](OCc2ccccc2)C1` (relative stereo) [Example 94, 2-amino-N-(trans-4-(benzyloxy)-1-isopropylpyrrolidin-3-yl)-5-(1-methyl-1H-pyrazol-4-yl)nicotinamide] and `CC(C)[C@@H](COCc1ccccc1)NC(=O)c1cc(-c2cnn(C)c2)cnc1N` [Example 109, (S)-2-amino-N-(1-(benzyloxy)-3-methylbutan-2-yl)-5-(1-methyl-1H-pyrazol-4-yl)nicotinamide] cannot be ordered by IC50: > 1000 nM for the first, > 1000 nM for the second.

`Cn1cc(-c2cnc(N)c(C(=O)N[C@H]3CCC[C@@H]3OCc3ccccc3)c2)c(CN2CCCC(O)C2)n1` (stereo partly drawn) [Example 263, 2-amino-N-((1S,2S)-2-(benzyloxy)cyclopentyl)-5-(3-((3-hydroxypiperidin-1-yl)methyl)-1-methyl-1H-pyrazol-4-yl)nicotinamide] and `Cn1cc(-c2cnc(N)c(C(=O)N[C@H]3CCC[C@@H]3OCc3cccc([N+](=O)[O-])c3)c2)cn1` [Example 30, 2-amino-5-(1-methyl-1H-pyrazol-4-yl)-N-((1S,2S)-2-((3-nitrobenzyl)oxy)cyclopentyl)nicotinamide] cannot be ordered by IC50: > 1000 nM for the first, > 1000 nM for the second.

`Cn1cc(-c2cnc(N)c(C(=O)N[C@H]3COC[C@@H]3N3CCCC3)c2)cn1` (relative stereo) [Example 91, 2-amino-5-(1-methyl-1H-pyrazol-4-yl)-N-(trans-4-(pyrrolidin-1-yl)tetrahydrofuran-3-yl)nicotinamide] and `Cn1cc(-c2cnc(N)c(C(=O)N[C@H]3COC[C@H]3O)c2)cn1` (relative stereo) [Example 92, 2-amino-N-(cis-4-hydroxytetrahydrofuran-3-yl)-5-(1-methyl-1H-pyrazol-4-yl)nicotinamide] cannot be ordered by IC50: > 1000 nM for the first, > 1000 nM for the second.

`C[C@H](COCC1CCC1)NC(=O)c1cc(-c2cnn(C)c2)cnc1N` [Example 119, (R)-2-amino-N-(1-(cyclobutylmethoxy)propan-2-yl)-5-(1-methyl-1H-pyrazol-4-yl)nicotinamide] and `C[C@@H](CNC(=O)c1cc(-c2cnn(C)c2)cnc1N)OCc1ccc(Cl)cc1` [Example 103, (S)-2-amino-N-(2-((4-chlorobenzyl)oxy)propyl)-5-(1-methyl-1H-pyrazol-4-yl)nicotinamide] cannot be ordered by IC50: > 1000 nM for the first, > 1000 nM for the second.

`Cn1cc(-c2cnc(N)c(C(=O)N[C@H]3CCC[C@@H]3OCc3cccc(-c4cccc(CO)c4)c3)c2)cn1` [Example 171, 2-amino-N-((1S,2S)-2-((3′-(hydroxymethyl)-[1,1′-biphenyl]-3-yl)-methoxy)cyclopentyl)-5-(1-methyl-1H-pyrazol-4-yl)nicotinamide] and `Cn1cc(-c2cnc(N)c(C(=O)N[C@H]3CCC[C@@H]3OCc3cccc(C(=O)NCCO)c3)c2)cn1` [Example 56, 2-amino-N-((1S,2S)-2-((3-((2-hydroxyethyl)carbamoyl)benzyl)-oxy)cyclopentyl)-5-(1-methyl-1H-pyrazol-4-yl)nicotinamide] cannot be ordered by IC50: > 1000 nM for the first, > 1000 nM for the second.

`Cn1cc(-c2cnc(N)c(C(=O)N[C@@H](CO)C(=O)OCc3ccccc3)c2)cn1` [Example 128, benzyl (2-amino-5-(1-methyl-1H-pyrazol-4-yl)nicotinoyl)-L-serinate] and `COC(=O)CNC(=O)c1cccc(CO[C@H]2CCC[C@@H]2NC(=O)c2cc(-c3cnn(C)c3)cnc2N)c1` [Example 55, methyl (3-((((1S,2S)-2-(2-amino-5-(1-methyl-1H-pyrazol-4-yl)nicotinamido)cyclopentyl)oxy)methyl)benzoyl)glycinate] cannot be ordered by IC50: > 1000 nM for the first, > 1000 nM for the second.

`Cn1cc(-c2cnc(N)c(C(=O)N[C@H]3CCC[C@@H]3OCc3ccc(-n4nccn4)cc3)c2)cn1` [Example 62, N-((1S,2S)-2-((4-(2H-1,2,3-triazol-2-yl)benzyl)oxy)cyclopentyl)-2-amino-5-(1-methyl-1H-pyrazol-4-yl)nicotinamide] and `Cn1cc(-c2cnc(N)c(C(=O)N[C@H]3CCC[C@@H]3COc3cccc(C(=O)N4CCCCC4)c3)c2)cn1` [Example 83, 2-amino-5-(1-methyl-1H-pyrazol-4-yl)-N-((1S,2S)-2-((3-(piperidine-1-carbonyl)phenoxy)methyl)cyclopentyl)nicotinamide] cannot be ordered by IC50: > 1000 nM for the first, > 1000 nM for the second.
